Data on nine compounds can be found in patent US20220142995A1, “DUAL ATM AND DNA-PK INHIBITORS FOR USE IN ANTI-TUMOR THERAPY” (XRAD Therapeutics, Inc., priority 2019, published 2022).

For one data set, the target named is T1, ATM (Homo sapiens, UniProt Q13315).
T1 construct: endogenous in cells; host or cells: MCF-7
The experiment in a line: ATM in Cell Western assay (pKAP1, etoposide-treated MCF-7 cells). Type of data set: cell-based. The settings on record: etoposide 100 μM, 1 h, pKAP1 readout. As to the method: ATM in Cell Western Assay:
In the morning, MCF-7 breast cancer cells were placed in a 384 well plate at the density of 10,000 cells/well (Corning, #356663), 25 μL cells per well. The following day, compounds were added to the plate using a pin tool (Echo 550) to a final concentration of 1 μM through a 3-fold serial dilution (a total of 10 doses). Then, etoposide (Sigma, #E1383) was added to a final concentration of 100 μM. The plate was incubated at 37° C. for 1 h, and the cells were fixed by the addition of 25 μL of fixing solution (8% paraformaldehyde) for 20 minutes at ambient temperature. Cells were permeabilized by 5 washes with 1×PBS (phosphate buffered saline) containing 0.1% Triton X-100; each wash was 5 minutes long. Cells were blocked by adding 50 μL of Odyssey Blocking Buffer (LI-COR, #927-40000) in 384 well plates for 1.5 hours with shaking at ambient temperature. Blocking buffer was then removed, and 20 μL of anti-pKAP1 antibody (Bethyl Laboratories, #A300-767A) (1/2000) solution were added to each well of 384-well plate. The plate was incubated overnight at 4° C. and then washed 5 times with 1×PBST (1×PBS containing 0.1% Tween-20). A secondary antibody (IRDye 800CW Goat anti-Rabbit IgG, LI-COR, #926-32211) (1/5,000) solution containing DNA stain DRAQ5 (CST, #4084L) (1/5,000) (20 μL) was added to each well in the plate, and the plate was incubated 1 hour with gentle shaking in the dark. Cells were washed 5 times with 1×PBST (1×PBS containing 0.1% Tween-20) at ambient temperature with gentle shaking in the dark. After the last wash, the wash solution was removed, the plate was inverted upside down onto a thin paper towel and centrifuged at 1000 rpm for 1 min to absorb all wash buffer. The bottom of the plate was cleaned with a moist, lint-free paper. The plate was immediately scanned using ODYSSEY CLx (LI-COR).

The target of a further data set is T2, hERG (Homo sapiens, UniProt Q12809).
T2 construct: host or cells: T-REx HEK293
The experiment in a line: In-vitro hERG inhibition assay (manual patch clamp, hERG-T-REx HEK 293 cells). Type of data set: cell-based. The protocol: In-Vitro hERG Inhibition Assay:
The hERG-T-REx™ HEK 293 cells (Invitrogen, K1236) were generated by transfecting the hERG coding sequence in the Tet-regulated expression vector pT-Rex-DEST30 into cells expressing the Tet-repressor (T-Rex™ HEK293), thereby producing cells that can be induced to express high level of hERG channels. The cells were cultured in a medium containing of 85% DMEM, 10% dialyzed FBS, 0.1 mM NEAA, 25 mM HEPES, 100 U/mL Penicillin-Streptomycin, 5 μg/mL Blasticidin, and 400 μg/mL Geneticin. The cells were split using TrypLE™ Express (Gibco, 12604) about three times a week and maintained between ˜40% to ˜80% confluence. Before the assay, the cells were induced with doxycycline (Sigma, D9891) at 1 μg/mL for 48 hours. On the experiment day, the induced cells were resuspended and plated onto the coverslips at 5×10^5 cells/per 6 cm cell culture dish prior to use. The hERG channel-mediated current was acquired by manual patch clamp recording systems equipped with amplifiers (HEKA, EPC10 and Molecular Devices, multiclamp 700B) and the inverted phase contrast microscope (Olympus, IX51/71/73). Glass pipettes were prepared by micropipette puller (Sutter, P97 and Narishige, PC-10) and qualified by the pipette resistance in the range of […]. The internal pipette solution was 140 mM KCl, 2 mM MgCl2, 10 mM EGTA, 5 mM MgATP, and 10 mM HEPES (pH adjusted to 7.35 with KOH), and the external buffer was 132 mM NaCl, 4 mM KCl, 3 mM CaCl2), 0.5 mM MgCl2, 11.1 mM glucose, and 10 mM HEPES (pH adjusted to 7.35 with NaOH). The whole-cell configuration was maintained with access resistance continuously monitored (<15 M[…]). The hERG current was elicited by depolarizing membrane to +30 mV for 4.8 sec, and the voltage was set back to −50 mV for 5.2 sec to remove the inactivation and measure the deactivating tail current. The maximum amount of tail current size was used to determine hERG current amplitude. To evaluate the hERG inhibition, the blank vehicle and test articles were perfused to cells under whole-cell recording configuration through the liquid perfusion system (ALA, VM8 gravity-flow delivery system). For dose response assay, test article was applied to the cells accumulatively from low to high concentrations. A positive control (Dofetilide) was used in the experiments to ensure the performance of the cells and operations as major part of method validation. The percentage hERG current inhibition was fitted against dose concentrations to build the dose-response curve and determine IC50.
For orientation: hERG is a cardiac potassium channel; its block is linked to QT prolongation.

The next data set deals with MCF7 cells. The experiment in a line: Clonogenic survival assay in MCF7 cells with or without radiation. Type of data set: cell-based, human. The settings on record: for Fold 2 Gy / Fold 4 Gy: relative to DMSO. As to the method:
Cell Culture. The MCF-7 human breast carcinoma cell line and HCT116 p53 wild-type and HCT116 p53−/− cell lines were obtained from ATCC. MCF7 and HCT116 cells were cultured in Dulbecco's modified Eagle's medium (DMEM (Gibco #11995-065). MDA-MB-231 human triple negative breast cancer cell line and FADU, human head and neck squamous cell carcinoma line, were obtained from Charles River Laboratories (Morrisville, N.C.). MDA-MB-231 cells were cultured in RPMI 1640 medium (Gibco, 11875-093). FADU cells were cultured in Minimum Essential Medium a (MEM a) (Gibco, 12571-063) supplemented with 1 mM Sodium Pyruvate (Gibco, 11360-070), 1×MEM Non-Essential Amino Acids (Gibco, 11140-050). All cell lines were supplemented with 10% fetal bovine serum (FBS) (Corning, 35-010-CV) and 1× Anti biotic-Anti mycotic (Gibco #15240-062) and were grown at […]. All cell lines were authenticated by short tandem repeat profiling and tested negative for mycoplasma.
Clonogenic survival assay. This assay was performed with compound 569. Cells were plated in 6-well plates at different densities: 250 cells for no IR control, 5000 cells for 2 Gy of IR and 10000 cells for 4 Gy of IR and cultured overnight. The next day, cells were preincubated with compound 569 at 100, 250, 500, or 1000 nM or DMSO for 30 min before being exposed to increasing doses of IR (0, 2, or 4 Gy). After IR, cells were continuously incubated with DMSO or compound 569 for 5 h before the culture medium was removed and cells were washed with PBS. Cells were cultured in complete medium in the absence of inhibitor for 9 days. Then cells were stained (PBS, 0.0037% v/v formaldehyde, 0,1% crystal violet) rinsed with water and dried.

Where “and” joins values, the source holds several entries; their conditions need not be identical. Equal entries are not always repeated. Structures can show the parent of a compound that is named as a salt. Some results are limits rather than exact numbers.

T1 sequence (Q13315 whole entry): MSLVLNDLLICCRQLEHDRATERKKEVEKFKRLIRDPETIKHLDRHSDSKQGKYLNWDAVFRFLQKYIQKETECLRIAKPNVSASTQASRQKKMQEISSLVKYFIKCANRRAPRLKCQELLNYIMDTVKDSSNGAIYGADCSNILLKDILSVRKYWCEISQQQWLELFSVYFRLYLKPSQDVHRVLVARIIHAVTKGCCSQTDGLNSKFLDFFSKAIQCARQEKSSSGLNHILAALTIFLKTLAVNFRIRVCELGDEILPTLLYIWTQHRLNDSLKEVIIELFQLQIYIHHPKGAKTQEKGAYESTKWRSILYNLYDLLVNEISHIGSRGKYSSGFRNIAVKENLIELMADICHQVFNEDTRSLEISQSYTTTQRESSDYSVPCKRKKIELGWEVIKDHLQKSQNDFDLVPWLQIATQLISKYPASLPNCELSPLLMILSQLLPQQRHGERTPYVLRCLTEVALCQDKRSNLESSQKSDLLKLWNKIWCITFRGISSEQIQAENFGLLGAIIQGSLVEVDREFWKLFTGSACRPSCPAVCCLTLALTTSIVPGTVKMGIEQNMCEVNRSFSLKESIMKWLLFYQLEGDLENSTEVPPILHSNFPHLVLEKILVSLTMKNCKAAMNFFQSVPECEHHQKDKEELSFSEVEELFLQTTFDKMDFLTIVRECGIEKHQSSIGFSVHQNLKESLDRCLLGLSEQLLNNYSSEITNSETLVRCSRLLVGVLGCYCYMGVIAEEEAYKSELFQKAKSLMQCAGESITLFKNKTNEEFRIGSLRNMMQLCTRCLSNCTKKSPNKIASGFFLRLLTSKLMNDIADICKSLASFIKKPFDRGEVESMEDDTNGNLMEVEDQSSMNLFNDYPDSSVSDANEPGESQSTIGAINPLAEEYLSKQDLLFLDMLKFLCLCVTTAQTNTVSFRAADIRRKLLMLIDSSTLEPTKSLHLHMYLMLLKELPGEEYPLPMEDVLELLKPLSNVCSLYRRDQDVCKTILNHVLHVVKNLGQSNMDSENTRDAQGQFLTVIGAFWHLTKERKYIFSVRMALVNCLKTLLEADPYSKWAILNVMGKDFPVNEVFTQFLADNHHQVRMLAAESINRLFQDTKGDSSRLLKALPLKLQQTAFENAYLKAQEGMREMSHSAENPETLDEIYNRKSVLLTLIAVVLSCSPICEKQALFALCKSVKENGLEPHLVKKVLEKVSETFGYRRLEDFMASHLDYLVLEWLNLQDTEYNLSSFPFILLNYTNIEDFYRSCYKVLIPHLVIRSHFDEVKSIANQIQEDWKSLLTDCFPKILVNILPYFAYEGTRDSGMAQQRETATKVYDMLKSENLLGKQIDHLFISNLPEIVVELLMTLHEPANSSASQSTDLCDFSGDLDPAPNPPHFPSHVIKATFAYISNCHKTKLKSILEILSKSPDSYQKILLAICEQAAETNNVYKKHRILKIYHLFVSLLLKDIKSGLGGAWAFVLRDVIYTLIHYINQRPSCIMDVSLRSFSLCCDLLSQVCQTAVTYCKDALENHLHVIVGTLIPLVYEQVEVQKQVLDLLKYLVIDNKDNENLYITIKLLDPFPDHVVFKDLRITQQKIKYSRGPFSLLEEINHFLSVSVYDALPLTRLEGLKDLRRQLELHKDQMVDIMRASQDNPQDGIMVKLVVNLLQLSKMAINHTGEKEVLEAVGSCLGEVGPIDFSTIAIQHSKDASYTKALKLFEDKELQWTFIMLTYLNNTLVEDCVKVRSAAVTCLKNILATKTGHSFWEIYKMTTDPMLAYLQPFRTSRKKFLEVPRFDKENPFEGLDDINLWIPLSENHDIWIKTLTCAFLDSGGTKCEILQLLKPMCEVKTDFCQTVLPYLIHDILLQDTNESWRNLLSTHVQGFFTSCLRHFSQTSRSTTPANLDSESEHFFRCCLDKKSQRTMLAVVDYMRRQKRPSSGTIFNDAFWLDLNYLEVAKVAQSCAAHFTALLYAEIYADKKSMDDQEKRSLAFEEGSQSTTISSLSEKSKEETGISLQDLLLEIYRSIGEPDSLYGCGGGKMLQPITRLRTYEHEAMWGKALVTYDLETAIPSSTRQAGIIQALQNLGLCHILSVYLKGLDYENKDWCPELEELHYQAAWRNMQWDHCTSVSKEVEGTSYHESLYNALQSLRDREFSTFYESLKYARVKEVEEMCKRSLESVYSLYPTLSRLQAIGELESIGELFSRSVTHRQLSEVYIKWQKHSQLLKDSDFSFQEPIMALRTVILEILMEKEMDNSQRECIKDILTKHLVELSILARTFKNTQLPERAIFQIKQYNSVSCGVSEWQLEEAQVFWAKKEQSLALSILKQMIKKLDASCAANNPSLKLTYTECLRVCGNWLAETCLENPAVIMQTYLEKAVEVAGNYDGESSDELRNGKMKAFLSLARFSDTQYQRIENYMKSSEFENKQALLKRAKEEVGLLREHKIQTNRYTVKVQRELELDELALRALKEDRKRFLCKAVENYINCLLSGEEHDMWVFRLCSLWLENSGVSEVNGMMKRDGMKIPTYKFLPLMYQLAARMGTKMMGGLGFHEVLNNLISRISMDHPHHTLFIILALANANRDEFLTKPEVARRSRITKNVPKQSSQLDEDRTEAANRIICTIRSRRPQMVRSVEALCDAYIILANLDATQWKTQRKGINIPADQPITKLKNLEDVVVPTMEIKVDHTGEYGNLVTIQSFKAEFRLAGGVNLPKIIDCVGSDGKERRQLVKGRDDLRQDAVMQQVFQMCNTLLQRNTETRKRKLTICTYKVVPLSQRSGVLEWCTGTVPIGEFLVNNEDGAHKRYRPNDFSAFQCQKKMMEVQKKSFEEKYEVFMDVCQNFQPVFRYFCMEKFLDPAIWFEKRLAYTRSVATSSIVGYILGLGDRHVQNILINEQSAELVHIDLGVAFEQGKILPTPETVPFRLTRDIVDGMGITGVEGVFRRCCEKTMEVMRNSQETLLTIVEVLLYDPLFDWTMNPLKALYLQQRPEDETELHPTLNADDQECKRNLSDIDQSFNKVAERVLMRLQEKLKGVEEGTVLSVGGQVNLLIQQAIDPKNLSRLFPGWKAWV
T2 sequence (Q12809 whole entry): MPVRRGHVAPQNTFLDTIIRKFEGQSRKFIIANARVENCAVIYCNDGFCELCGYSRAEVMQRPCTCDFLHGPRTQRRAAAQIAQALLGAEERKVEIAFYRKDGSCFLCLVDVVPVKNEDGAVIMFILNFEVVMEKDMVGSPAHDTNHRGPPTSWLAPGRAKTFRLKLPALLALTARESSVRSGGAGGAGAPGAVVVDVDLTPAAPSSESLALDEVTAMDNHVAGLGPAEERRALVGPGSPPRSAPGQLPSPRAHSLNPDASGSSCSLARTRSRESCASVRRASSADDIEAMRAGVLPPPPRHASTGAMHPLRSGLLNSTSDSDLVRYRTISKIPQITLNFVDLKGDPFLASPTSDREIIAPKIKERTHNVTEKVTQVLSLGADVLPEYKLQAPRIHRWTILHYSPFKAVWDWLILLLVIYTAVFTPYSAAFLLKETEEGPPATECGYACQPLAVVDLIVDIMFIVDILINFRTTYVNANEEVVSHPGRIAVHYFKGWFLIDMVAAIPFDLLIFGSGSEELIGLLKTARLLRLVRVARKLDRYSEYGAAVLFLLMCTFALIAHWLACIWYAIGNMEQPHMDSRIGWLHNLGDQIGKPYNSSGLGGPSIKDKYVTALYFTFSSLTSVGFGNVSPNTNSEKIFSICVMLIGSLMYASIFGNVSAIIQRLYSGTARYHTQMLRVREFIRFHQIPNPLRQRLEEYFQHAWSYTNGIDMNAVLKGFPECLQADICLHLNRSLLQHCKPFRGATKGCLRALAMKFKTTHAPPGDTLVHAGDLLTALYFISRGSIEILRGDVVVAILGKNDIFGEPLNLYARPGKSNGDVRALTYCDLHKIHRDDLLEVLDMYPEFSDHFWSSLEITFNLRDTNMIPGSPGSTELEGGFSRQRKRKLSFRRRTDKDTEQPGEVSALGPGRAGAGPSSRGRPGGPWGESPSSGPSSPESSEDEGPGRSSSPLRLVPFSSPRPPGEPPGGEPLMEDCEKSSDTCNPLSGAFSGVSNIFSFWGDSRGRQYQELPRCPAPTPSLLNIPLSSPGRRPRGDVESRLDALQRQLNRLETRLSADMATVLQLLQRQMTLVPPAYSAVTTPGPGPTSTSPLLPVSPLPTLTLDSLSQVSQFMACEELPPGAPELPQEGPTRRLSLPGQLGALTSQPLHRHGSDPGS

Take `CC(C)NCCOc1ncc(-c2cc3c(cc2F)ncc2c3[C@]3(C[C@@H](OCc4ccccc4)C3)C(=O)N2C)cc1NS(C)(=O)=O` [Compound 567, trans-N-(5-(3-(Benzyloxy)-7′-fluoro-3′-methyl-2′-oxo-2′,3′-dihydrospiro[cyclobutane-1,1′-pyrrolo[2,3-c]quinolin]-8′-yl)-2-(2-(isopropylamino)ethoxy)pyridin-3-yl)methanesulfonamide]: the IC50 against ATM worked out at 11 nM; against hERG (tail current) it was 5500 nM.
The matching figures for `CC[C@H]1C[C@@]2(C1)C(=O)N(C)c1cnc3cc(F)c(-c4cnc(OCCNC(C)C)c(NS(C)(=O)=O)c4)cc3c12` [Compound 566, trans-N-(5-(3-Ethyl-7′-fluoro-3′-methyl-2′-oxo-2′,3′-dihydrospiro[cyclobutane-1,1′-pyrrolo[2,3-c]quinolin]-8′-yl)-2-(2-(isopropylamino)ethoxy)pyridin-3-yl)methanesulfonamide]: 6.72 nM and 2100 nM.
Consider `CC(C)NCCOc1ncc(-c2cc3c(cc2F)ncc2c3[C@]3(C[C@H](OCc4ccccc4)C3)C(=O)N2C)cc1NS(C)(=O)=O` [Compound 572, cis-N-(5-(3-(Benzyloxy)-7′-fluoro-3′-methyl-2′-oxo-2′,3′-dihydrospiro[cyclobutane-1,1′-pyrrolo[2,3-c]quinolin]-8′-yl)-2-(2-(isopropylamino)ethoxy)pyridin-3-yl)methanesulfonamide], for which the results for the IC50 on ATM and on hERG (tail current) were 1.05 nM and 7500 nM, respectively.
With `CC(C)NCCOc1ncc(-c2cc3c4c(cnc3cc2F)N(C)C(=O)C42CN(C(C)C)C2)cc1NS(C)(=O)=O` [Compound 571, N-(5-(7′-Fluoro-1-isopropyl-3′-methyl-2′-oxo-2′,3′-dihydrospiro[azetidine-3,1′-pyrrolo[2,3-c]quinolin]-8′-yl)-2-(2-(isopropylamino)ethoxy)pyridin-3-yl)methanesulfonamide], the IC50 at ATM was 5.76 nM and 5.51 nM; against hERG (tail current), 5600 nM.
Regarding `CC(C)NCCOc1ncc(-c2cc3c4c(cnc3cc2F)N(C)C(=O)C42CCC2)cc1NS(=O)(=O)C(C)C` [Compound 568, N-(5-(7′-Fluoro-3′-methyl-2′-oxo-2′,3′-dihydrospiro[cyclobutane-1,1′-pyrrolo[2,3-c]quinolin]-8′-yl)-2-(2-(isopropylamino)ethoxy)pyridin-3-yl)propane-2-sulfonamide], the half-maximal inhibitory concentration (IC50) turned out to be 2.88 nM at ATM and 14000 nM at hERG (tail current).
Turning to `CC(C)NCCOc1ncc(-c2cc3c4c(cnc3cc2F)N(C)C(=O)C42CCC2)cc1NS(C)(=O)=O` [Compound 569, N-(5-(7′-Fluoro-3′-methyl-2′-oxo-2′,3′-dihydrospiro[cyclobutane-1,1′-pyrrolo[2,3-c]quinolin]-8′-yl)-2-(2-(isopropylamino)ethoxy)pyridin-3-yl)methanesulfonamide], the “Fold 2 Gy” value with MCF7 cells (100 nM) was found to be 7.5; with MCF7 cells (250 nM) it was 10.8; in the data set on MCF7 cells (500 nM), 14.7; in the data set on MCF7 cells (1000 nM), 22.0. For the same compound, the “Fold 4 Gy” value in the data set on MCF7 cells (100 nM) is given as 21.8; in the data set with MCF7 cells (250 nM), 54.0; in the data set with MCF7 cells (500 nM) it was 91.5; with MCF7 cells (1000 nM) it was 198. Besides, the radiosensitization result with MCF7 cells (5-h exposure, 100-1000 nM, IR 0, 2, 4 Gy) is “significant degree of radiosensitization”. The “cellular toxicity in the absence of IR” value in the data set with MCF7 cells (5-h exposure, 100-1000 nM, no IR) is “without evidence of cellular toxicity”. Moreover, the IC50 on ATM is 2.43 nM; against hERG (human, hERG-T-REx HEK 293 cells expressing hERG, pH 7.35, tail current), > 30000 nM.
Take `CCS(=O)(=O)Nc1cc(-c2cc3c4c(cnc3cc2F)N(C)C(=O)C42CCC2)cnc1OCCNC(C)C` [Compound 570, N-(5-(7′-Fluoro-3′-methyl-2′-oxo-2′,3′-dihydrospiro[cyclobutane-1,1′-pyrrolo[2,3-c]quinolin]-8′-yl)-2-(2-(isopropylamino)ethoxy)pyridin-3-yl)ethanesulfonamide]: the IC50 against ATM turned out to be 3.6 nM; on hERG (tail current), 10500 nM.
Consider `CN1C(=O)C2(CCC2)c2c1cnc1ccc(-c3cnc(N4CC(N(C)C)C4)c(NS(C)(=O)=O)c3)cc21` [Compound 574, N-(2-(3-(Dimethylamino)azetidin-1-yl)-5-(3′-methyl-2′-oxo-2′,3′-dihydrospiro[cyclobutane-1,1′-pyrrolo[2,3-c]quinolin]-8′-yl)pyridin-3-yl)methanesulfonamide hydrochloride], for which the IC50 was 1.52 nM against ATM and > 30000 nM on hERG (tail current).
Turning to `CC[C@H]1C[C@]2(C1)C(=O)N(C)c1cnc3cc(F)c(-c4cnc(OCCNC(C)C)c(NS(C)(=O)=O)c4)cc3c12` [Compound 573, cis-N-(5-(3-Ethyl-7′-fluoro-3′-methyl-2′-oxo-2′,3′-dihydrospiro[cyclobutane-1,1′-pyrrolo[2,3-c]quinolin]-8′-yl)-2-(2-(isopropylamino)ethoxy)pyridin-3-yl)methanesulfonamide], the IC50 on ATM came out at 0.92 nM; at hERG (tail current) it was 3000 nM.

In general, IC50 refers to the point on the concentration scale where inhibition reaches its midpoint. A high value points to a need for much substance.
